The source of these data is PubChem BioAssay (NCI).

Test systems include M14 melanoma; CCRF-CEM leukemia; RXF 393 renal; DU-145 prostate; SK-MEL-5 melanoma; SF-268 CNS; OVCAR-8 ovarian; MALME-3M melanoma; OVCAR-5 ovarian; PC-3 prostate; SK-OV-3 ovarian; K-562 leukemia; OVCAR-4 ovarian; UO-31 renal; SNB-75 CNS; SF-295 CNS; MCF7 breast; HCC-2998 colon; MOLT-4 leukemia; NCI-H226 lung.
Common to all, as to assay: growth of human tumour cells (NCI), 48 h

The structures appear in SMILES notation.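 48-hour exposure; five concentrations; linearly interpolated endpoints. Definition used: TGI = concentration required for complete inhibition of growth.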

For the compound `O=c1cc(CNC2CC3CCC2C3)[nH]c(=O)[nH]1` (configuration not stated), the TGI with M14 melanoma, in the experiment on CCRF-CEM leukemia, in the experiment on RXF 393 renal, in the experiment on DU-145 prostate, with SK-MEL-5 melanoma and in the experiment on SF-268 CNS was greater than 100 µM each time. Moreover, the TGI with OVCAR-8 ovarian, with MALME-3M melanoma, in the experiment with OVCAR-5 ovarian, in the experiment on PC-3 prostate, in the experiment on SK-OV-3 ovarian and in the experiment on K-562 leukemia was greater than 100 µM in each case. The TGI with OVCAR-4 ovarian, with UO-31 renal, in the experiment with SNB-75 CNS, with SF-295 CNS, in the experiment with MCF7 breast and in the experiment with HCC-2998 colon was greater than 100 µM in each case. This compound also yielded a TGI with MOLT-4 leukemia greater than 100 µM.

For the compound `COc1ccc(-n2c(C)nc3ccc(NC4OC(CO)C(O)C(O)C4O)cc3c2=O)cc1` (configuration not stated), the TGI in the experiment on RXF 393 renal, in the experiment with DU-145 prostate, in the experiment on SK-MEL-5 melanoma, in the experiment on SF-268 CNS, with OVCAR-8 ovarian and in the experiment on MALME-3M melanoma was greater than 100 µM each time. Also, the TGI in the experiment on OVCAR-5 ovarian, with PC-3 prostate, in the experiment with K-562 leukemia, in the experiment with NCI-H226 lung, in the experiment on OVCAR-4 ovarian and in the experiment with UO-31 renal was greater than 100 µM throughout. Moreover, the TGI with SNB-75 CNS, in the experiment with SF-295 CNS, with MCF7 breast, in the experiment with HCC-2998 colon and in the experiment with MOLT-4 leukemia was greater than 100 µM in each case.

Regarding `O=C1CSC(c2ccccc2O)N1c1ccc(Oc2ccc(Cl)cc2)c(Cl)c1` (configuration not stated), the TGI with M14 melanoma is 76.9 µM; with CCRF-CEM leukemia, 65.1 µM; in the experiment on DU-145 prostate, 59.8 µM; in the experiment with SK-MEL-5 melanoma, 33.8 µM; with SF-268 CNS, 31.4 µM; in the experiment on OVCAR-8 ovarian it was 74.6 µM. Further, the TGI with MALME-3M melanoma is 30.2 µM; in the experiment on OVCAR-5 ovarian it was 81.8 µM; in the experiment with PC-3 prostate, 60 µM; in the experiment on SK-OV-3 ovarian, 47.9 µM; in the experiment with K-562 leukemia, greater than 100 µM; in the experiment with NCI-H226 lung it was greater than 100 µM. Also, the TGI in the experiment with OVCAR-4 ovarian came to 66.1 µM; in the experiment on UO-31 renal, 20.7 µM; in the experiment with SNB-75 CNS, 47.3 µM; in the experiment on SF-295 CNS, 34.5 µM; in the experiment on MCF7 breast, 86.3 µM; in the experiment with HCC-2998 colon it was 40.4 µM. The compound further returned a TGI in the experiment on MOLT-4 leukemia of 81 µM.

With `C/C(N)=N/OCc1nc(C)no1`, the TGI in the experiment with M14 melanoma, in the experiment with CCRF-CEM leukemia, in the experiment on RXF 393 renal, in the experiment with DU-145 prostate, in the experiment with SK-MEL-5 melanoma and with SF-268 CNS was greater than 100 µM throughout. Also, the TGI with OVCAR-8 ovarian, in the experiment on PC-3 prostate, in the experiment with SK-OV-3 ovarian, in the experiment on K-562 leukemia, with OVCAR-4 ovarian and in the experiment on UO-31 renal was greater than 100 µM in each case. For the same compound, the TGI in the experiment with SNB-75 CNS, in the experiment with SF-295 CNS, in the experiment on MCF7 breast, with HCC-2998 colon and with MOLT-4 leukemia was greater than 100 µM throughout.

On to `CCOC(=O)/C=C/C1(CCOC(C)=O)CCCCC1`, for which the TGI in the experiment with M14 melanoma, in the experiment on CCRF-CEM leukemia, in the experiment on RXF 393 renal, with DU-145 prostate, in the experiment on SK-MEL-5 melanoma and with SF-268 CNS was greater than 10 µM throughout. Also, the TGI in the experiment on OVCAR-8 ovarian, with OVCAR-5 ovarian, with PC-3 prostate, in the experiment with SK-OV-3 ovarian, in the experiment on K-562 leukemia and with NCI-H226 lung was greater than 10 µM in each case. Besides, the TGI in the experiment with OVCAR-4 ovarian, in the experiment on UO-31 renal, in the experiment with SNB-75 CNS, with SF-295 CNS, in the experiment with MCF7 breast and with HCC-2998 colon was greater than 10 µM in each case. Also, the TGI in the experiment with MOLT-4 leukemia is greater than 10 µM.

As for `C[C@@]1(OC(=O)c2cc([N+](=O)[O-])cc([N+](=O)[O-])c2)C[C@@H]2CCCC[C@@H]21`, the TGI with M14 melanoma, in the experiment with CCRF-CEM leukemia, in the experiment on DU-145 prostate, in the experiment on SK-MEL-5 melanoma, in the experiment on SF-268 CNS and in the experiment on OVCAR-8 ovarian was greater than 100 µM in each case. The TGI with MALME-3M melanoma, in the experiment with OVCAR-5 ovarian, with PC-3 prostate, with SK-OV-3 ovarian, with K-562 leukemia and with NCI-H226 lung was greater than 100 µM in each case. Besides, the TGI in the experiment with OVCAR-4 ovarian, in the experiment with UO-31 renal, in the experiment with SNB-75 CNS, with SF-295 CNS, with MCF7 breast and with HCC-2998 colon was greater than 100 µM throughout. For the same compound, the TGI in the experiment with MOLT-4 leukemia was greater than 100 µM.

As for `O=C(O)CC12CC3CC(CC(O)(C3)C1)C2`, the TGI in the experiment with M14 melanoma is greater than 100 µM; in the experiment on RXF 393 renal, greater than 100 µM; with DU-145 prostate it was greater than 100 µM; in the experiment on SK-MEL-5 melanoma, greater than 100 µM; in the experiment with SF-268 CNS it was 82.7 µM; in the experiment on OVCAR-8 ovarian, greater than 100 µM. In addition, the TGI in the experiment with MALME-3M melanoma is 77.1 µM; in the experiment with OVCAR-5 ovarian, greater than 100 µM; in the experiment with PC-3 prostate, greater than 100 µM; in the experiment with SK-OV-3 ovarian, greater than 100 µM; in the experiment with K-562 leukemia it was greater than 100 µM; in the experiment with NCI-H226 lung, greater than 100 µM. In addition, the TGI in the experiment with OVCAR-4 ovarian, with UO-31 renal, with SNB-75 CNS, in the experiment with SF-295 CNS, in the experiment with MCF7 breast and with HCC-2998 colon was greater than 100 µM in each case.

Turning to `c1ccc(COC2C3COC(O3)C(OCc3ccccc3)C2OCc2ccccc2)cc1` (configuration not stated), the TGI was greater than 100 µM in the experiment on M14 melanoma; 40.6 µM in the experiment with CCRF-CEM leukemia; greater than 100 µM with RXF 393 renal; greater than 100 µM in the experiment with DU-145 prostate; greater than 100 µM with SK-MEL-5 melanoma; greater than 100 µM with SF-268 CNS. Further, the TGI in the experiment with OVCAR-8 ovarian, with OVCAR-5 ovarian, in the experiment on PC-3 prostate, in the experiment on SK-OV-3 ovarian, in the experiment on K-562 leukemia and in the experiment on NCI-H226 lung was greater than 100 µM each time. Besides, the TGI in the experiment with OVCAR-4 ovarian was greater than 100 µM; in the experiment on UO-31 renal, greater than 100 µM; in the experiment with SNB-75 CNS, greater than 100 µM; in the experiment on SF-295 CNS, greater than 100 µM; in the experiment on MCF7 breast, greater than 100 µM; in the experiment on HCC-2998 colon it was 52.1 µM. In the experiment with MOLT-4 leukemia, this compound had a TGI of 56.5 µM.
